Experimental findings from US20220304951A1, “ANTICANCER COMPOSITIONS AND METHODS FOR USING SAME” (Lispiro LLC, priority 2021, published 2022) are described below.

The structures appear in SMILES notation.

Holding throughout (type): cell-based
Series [1] deals with Human Cervical carcinoma cell line (HeLa). Nature of the series: New fuchsine treatment of HeLa cells, Trypan blue, automatic cell counter (Example 3). The procedure: Hela cells were growing in incubator at 37 degrees C. and 5% CO2 until 70% confluence was reached. After reaching of 70% confluence, medium was changed to medium with different concentrations of new fuchsine (0 μM, 15 μM, 31 μM, 62 μM, 125 μM and 250 μM). Flasks were kept in the CO2 incubator (5% CO2, 37-degree C) for additional 24 hours. After 24 hours of treatment, cells were detached with Trypsin, washed with fresh medium and stained with Trypan blue. Number of cells and viability were examined in automatic cell counter (Invitrogen).

In series [2] the test system is human colon adenocarcinoma cells (HT29). Nature of the series: New fuchsine treatment of HT29 cells, Trypan blue, automatic cell counter (Example 4). The procedure: The general study methods of study were as follows: HT29 cells were grown in incubator at 37 degrees C. and 5% CO2 until 70% confluence was reached. After reaching of 70% confluence, medium was changed to medium with different concentration of new fuchsine (0 μM, 15 μM, 31 μM, 62 μM, 125 μM and 250 μM). Flasks were kept in the CO2 incubator (5% CO2, 37-degree C) for additional 24 hours. After 24 hours of treatment cells were detached with Trypsin, washed with fresh medium and stained with Trypan blue. Cell viability was examined in automatic cell counter (Invitrogen).

Series [3] relates to Fibrosarcoma cells (HT-1080). Nature of the series: New fuchsine treatment of human fibrosarcoma cells, H&E staining, light microscopy (Example 2). The following applies: new fuchsine 50 uM, 12 hours, H&E stain; corresponds to empty plastic. As for the experimental part: (§1) 2 flasks Thermo Scientific Nunc Nunclon Delta Surface 12.5 cm (Cat. No 136196) with McCoy's5A complete medium were seeded with cell culture of CRL1790 (ATCC) and 2 flasks Thermo Scientific Nunc Nunclon Delta Surface 12.5 cm (Cat. No 136196) with DMEM complete medium were seeded with cell culture of HT1080 (ATCC) and were kept at 37 degrees 5% CO2 in CO2 incubator until it reached of 100% confluence (2 days). After reaching of 100% confluence medium with 10% of FBS was changed to the same medium with different concertation of New Fuchsin (0 uM, and 50 uM) (Sigma Cat. No 72200). Flasks were kept in the CO2 incubator 5% CO2, 37-degree C for additional 12 hours. After 12 hours of treatment all flasks were stained by fixed by 10% Formaldehyde and stained by H&E. After completing of the staining protocol the flasks were examined in the light microscope under magnification x100 and multiple pictures were taken using Olympus BX51 microscope and Olympus DP73 digital camera.

The subject of series [4] is normal human epithelial like cells (CRL-1790). Nature of the series: New fuchsine treatment of normal human epithelial like cells, H&E staining, light microscopy (Example 1). As to conditions: all tested concentrations (25, 50, 100, 150 uM), 48 hours, H&E stain. The procedure:
(§2) 4 flasks Thermo Scientific Nunc Nunclon Delta Surface 12.5 cm (Cat.No136196) with McCoy's5A complete medium were seeded with cell culture of CRL1790 (ATCC) and 4 flasks Thermo Scientific Nunc Nunclon Delta Surface 12.5 cm (Cat.No136196) with McCoy's5A complete medium were seeded with cell culture of HT29 (ATCC) and were kept at 37 degrees 5% CO2 in CO2 incubator until it reached of 70% confluence (2 days). After reaching of 70% confluence flasks McCoy's5A medium with 10% of FBS was changed to the same medium with different concertation of new fuchsine (0 uM, 25 uM, 50 uM, 100 uM, 150 uM) (Sigma Cat. No 72200). Flasks were kept in the CO2 incubator 5% CO2, 37-degree C for additional 48 hours. After 48 hours of treatment all flasks were stained by fixed by 10% Formaldehyde and stained by H&E. After completing of the staining protocol the flasks were examined in the light microscope under magnification x100 and multiple pictures were taken using Olympus BX51 microscope and Olympus DP73 digital camera.

Series [5] concerns Human colon carcinoma cells (HT29). Nature of the series: New fuchsine treatment of human colon carcinoma cells, H&E staining, light microscopy (Example 1). As to conditions: 48 hours, H&E stain. As for the experimental part: as §2
The test system of series [6] is normal human epithelial like cells (CRL-1790). Nature of the series: New fuchsine treatment of normal human epithelial like cells, H&E staining, light microscopy (Example 2). As to conditions: all tested concentrations (50 uM), 12 hours, H&E stain. As for the experimental part: as §1
Setting [7] is: new fuchsine 250 uM, 24 hours, Trypan blue.

Consider `CC1=CC(=C(c2ccc(N)c(C)c2)c2ccc(N)c(C)c2)C=CC1=N.Cl` [new fuchsine, [4-[bis(4-amino-3-methylphenyl)methylidene]-2-methylcyclohexa-2,5-dien-1-ylidene]azanium; chloride], for which the “toxicity to human carcinoma cells (HeLa)” value in series [1] (all tested concentrations (15, 31, 62, 125, 250 μM), 24 hours, Trypan blue viability and cell count) was “exhibited toxicity”. The “toxicity to carcinoma cells (HeLa)” value in series [1] (setting [7]) amounted to 100%. The “cytotoxic effect on cervical carcinoma (HeLa cells), summary” value in series [1] (summary of the examples) was “high efficacy, dose dependent cytotoxic effect”. The “toxicity to human colon adenocarcinoma cells (HT29)” value in series [2] (all tested concentrations (15, 31, 62, 125, 250 μM), 24 hours, Trypan blue viability) is “did exhibit toxicity”. For the same compound, the “toxicity to colon adenocarcinoma cells (HT29)” value in series [2] (setting [7]) is given as under 100%. Moreover, the “efficacy for colon carcinoma (HT29 cells) compared with cervical carcinoma (HeLa cells), summary” value in series [2] (summary of the examples) is listed as “much less effective”. The “toxicity to Fibrosarcoma cells (HT-1080)” value in series [3] is listed as 100%. Moreover, the “visual toxicity to normal human epithelial like cells (CRL-1790)” value in series [4] and in series [6] was “did not exhibit any visual toxicity” throughout. For the same compound, in series [5], the “concentration at which first signs of toxicity to colon carcinoma cells (HT29) can be seen” value was 50 µM. Further, the “toxicity to carcinoma cells (HT29)” value in series [5] (new fuchsine 150 uM, corresponds to empty plastic) stood at 100%.
